Where a SMILES comes first, the peptide text is derived from it. Bridges are numbered along the chain shown (N, C = ends).
Key:
BRD2-BD2 = target: T1, BRD2-BD2 (Homo sapiens, UniProt P25440); assay: SPR binding of peptides to immobilised biotinylated BET bromodomain
T1 construct: human BRD2 (BD1: 65-194; BD2: 347-455); Avi tag (biotinylated); made in house; host or cells: E. coli BL21(DE3)
Excerpt: (§1) We next assessed the ability of each of the three lead peptides to bind BRD3-BD1. […] To assess selectivity for other BET BDs, we used SPR to determine the binding affinity of each peptide toward the remaining BDs from BRD2, BRD3, and BRD4 (Fig. 1B). […]
(§2) Crude peptides were purified by reverse-phase high-performance liquid chromatography using a Chromolith Prep column (Merck) on a Prominence LC-20AP system (Shimadzu) (Solvent A: 0.1% TFA in H2O, Solvent B: 0.1% TFA in acetonitrile) to >95% purity as determined by mass spectrometry (Fig. S17). Purified peptides were reconstituted in DMSO and concentrations determined from their absorbance at 280 nm in 5% DMSO using predicted extinction coefficients.
(§3) Surface plasmon resonance (SPR)
(§4) Measurements were conducted on a T200 or S200 (GE Healthcare) and data analysed using the Biacore Insight Evaluation Software. Experiments were performed at 4 °C in single cycle kinetics mode. Biotinylated BET bromodomains were immobilised on a CAP chip (GE Healthcare) with a […]
(§5) pH 7.5 was used as the running buffer. […]

BRD3-BD1 = target: T2, BRD3-BD1 (Homo sapiens, UniProt Q15059); assay: as above
T2 construct: BRD3 (BD1: 25-147); Avi tag (biotinylated); made in house; host or cells: E. coli BL21(DE3)
Excerpt: as §1, §2, §3, §4, §5

ATAD2A = target: T3, ATAD2A (Homo sapiens, UniProt Q6PL18); assay: BROMOscan competition binding assay (BromoMAX, Eurofins DiscoverX); details: for Percent Control ATAD2A: compound concentration 1000 nM, lower percentage control = stronger affinity
T3 construct: purchased Eurofins DiscoverX (BROMOscan, BromoMAX)
T3 sequence (Q6PL18 1-1390): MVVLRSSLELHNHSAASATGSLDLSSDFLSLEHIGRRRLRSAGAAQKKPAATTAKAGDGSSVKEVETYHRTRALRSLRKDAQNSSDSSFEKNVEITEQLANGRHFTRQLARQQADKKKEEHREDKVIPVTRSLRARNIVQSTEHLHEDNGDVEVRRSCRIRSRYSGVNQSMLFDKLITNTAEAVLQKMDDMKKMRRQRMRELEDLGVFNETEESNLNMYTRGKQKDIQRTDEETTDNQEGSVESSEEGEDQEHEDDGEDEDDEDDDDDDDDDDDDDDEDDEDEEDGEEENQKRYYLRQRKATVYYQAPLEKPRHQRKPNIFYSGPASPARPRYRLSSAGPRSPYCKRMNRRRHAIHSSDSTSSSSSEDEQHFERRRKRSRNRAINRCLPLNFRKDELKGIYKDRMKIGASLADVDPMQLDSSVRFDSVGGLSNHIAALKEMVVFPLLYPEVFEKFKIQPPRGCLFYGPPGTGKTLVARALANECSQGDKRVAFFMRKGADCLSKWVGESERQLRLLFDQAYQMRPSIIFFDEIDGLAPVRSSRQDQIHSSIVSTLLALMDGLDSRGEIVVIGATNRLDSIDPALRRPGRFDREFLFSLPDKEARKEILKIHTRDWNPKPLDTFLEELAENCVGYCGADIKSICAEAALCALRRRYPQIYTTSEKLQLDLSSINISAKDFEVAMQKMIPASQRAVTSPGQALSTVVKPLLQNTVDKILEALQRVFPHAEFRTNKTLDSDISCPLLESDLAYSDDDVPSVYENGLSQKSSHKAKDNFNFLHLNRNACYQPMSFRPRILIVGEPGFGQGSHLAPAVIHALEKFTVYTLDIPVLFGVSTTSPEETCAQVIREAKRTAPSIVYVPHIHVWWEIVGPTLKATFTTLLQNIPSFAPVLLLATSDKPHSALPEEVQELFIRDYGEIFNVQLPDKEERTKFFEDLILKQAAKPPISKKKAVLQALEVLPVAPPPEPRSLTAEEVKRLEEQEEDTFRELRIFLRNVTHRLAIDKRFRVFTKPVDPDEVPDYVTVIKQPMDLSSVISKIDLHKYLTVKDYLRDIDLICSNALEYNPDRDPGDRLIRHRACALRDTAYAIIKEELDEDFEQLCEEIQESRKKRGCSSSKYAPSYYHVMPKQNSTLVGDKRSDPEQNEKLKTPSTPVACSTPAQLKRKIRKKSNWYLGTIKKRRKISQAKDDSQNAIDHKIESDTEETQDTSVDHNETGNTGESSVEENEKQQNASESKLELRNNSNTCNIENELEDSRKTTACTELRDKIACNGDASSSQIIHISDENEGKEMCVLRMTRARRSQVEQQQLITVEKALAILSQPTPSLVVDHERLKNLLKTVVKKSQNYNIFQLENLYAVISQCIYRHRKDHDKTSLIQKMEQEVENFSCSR

BRD9 = target: T4, BRD9 (Homo sapiens, UniProt Q9H8M2); assay: as above; details: for Percent Control BRD9: compound concentration 1000 nM, lower percentage control = stronger affinity
T4 construct: purchased Eurofins DiscoverX (BROMOscan, BromoMAX)
T4 sequence (Q9H8M2 1-597): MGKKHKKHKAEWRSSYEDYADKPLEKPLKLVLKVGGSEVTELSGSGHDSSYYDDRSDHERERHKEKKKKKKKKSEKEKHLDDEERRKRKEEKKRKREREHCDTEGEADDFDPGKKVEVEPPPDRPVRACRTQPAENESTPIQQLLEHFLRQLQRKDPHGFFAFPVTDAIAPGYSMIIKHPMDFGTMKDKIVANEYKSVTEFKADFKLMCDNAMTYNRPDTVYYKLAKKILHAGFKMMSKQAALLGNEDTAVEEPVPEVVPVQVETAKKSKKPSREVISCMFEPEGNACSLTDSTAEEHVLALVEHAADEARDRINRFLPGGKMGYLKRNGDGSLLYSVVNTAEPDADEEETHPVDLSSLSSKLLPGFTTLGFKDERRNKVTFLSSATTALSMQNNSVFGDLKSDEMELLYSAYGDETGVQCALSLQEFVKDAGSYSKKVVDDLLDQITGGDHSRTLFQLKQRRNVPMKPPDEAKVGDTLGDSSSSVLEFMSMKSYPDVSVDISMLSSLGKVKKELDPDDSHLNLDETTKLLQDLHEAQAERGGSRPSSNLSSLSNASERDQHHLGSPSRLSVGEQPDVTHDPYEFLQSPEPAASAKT

BRDT(1) = target: T5, BRDT(1) (Homo sapiens, UniProt Q58F21); assay: as above; details: for Percent Control BRDT(1): compound concentration 1000 nM, lower percentage control = stronger affinity
T5 construct: BRDT(1); purchased Eurofins DiscoverX (BROMOscan, BromoMAX)

TRIM24(PHD,Bromo.) = target: T6, TRIM24(PHD,Bromo.) (Homo sapiens, UniProt O15164); assay: as above; details: for Percent Control TRIM24(PHD,Bromo.): compound concentration 1000 nM, lower percentage control = stronger affinity
T6 construct: purchased Eurofins DiscoverX (BROMOscan, BromoMAX)
T6 sequence (O15164 824-1006 limits assumed): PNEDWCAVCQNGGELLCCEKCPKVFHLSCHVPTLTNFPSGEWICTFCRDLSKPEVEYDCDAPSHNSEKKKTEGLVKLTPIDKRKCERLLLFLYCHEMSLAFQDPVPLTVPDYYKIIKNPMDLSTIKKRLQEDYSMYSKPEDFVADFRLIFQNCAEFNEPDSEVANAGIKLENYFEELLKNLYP

[1] = gray boxed value: no reproducible signals observed at the concentrations used
[2] = 4 C, geometric mean and SD of two to five measurements

SMILES | Kd (BRD2-BD2; [1]) | Kd (BRD3-BD1; [2]) | Percent Control ATAD2A (ATAD2A) | Percent Control BRD9 (BRD9) | Percent Control BRDT(1) (BRDT(1)) | Percent Control TRIM24(PHD,Bromo.) (TRIM24(PHD,Bromo.)) | Kd (BRD2-BD2; [2]) | Kd (BRD3-BD1; [1]) | percent of control binding at 1 µM (ATAD2A) | percent of control binding at 1 µM (BRD9) | remaining binding at 1 µM (BRDT(1); read-out: Percent Control BRDT(1)) | percent of control binding at 1 µM (TRIM24(PHD,Bromo.))
CC[C@H](C)[C@@H]1NC(=O)[C@H]([C@@H](C)O)NC(=O)[C@H](CCCCN)NC(=O)[C@H](Cc2c[nH]c3ccccc23)NC(=O)CSC[C@@H](C(N)=O)NC(=O)[C@H](CCC(N)=O)NC(=O)[C@H](CCCCNC(C)=O)NC(=O)[C@H]([C@@H](C)O)NC(=O)[C@H](CCCNC(=N)N)NC(=O)[C@H](Cc2c[nH]c3ccccc23)NC(=O)[C@H]([C@@H](C)O)NC(=O)[C@H](CCCCNC(C)=O)NC(=O)CNC(=O)[C@H](CCCCNC(C)=O)NC1=O [3.1B] ({CH2CO}-WKTIK(Ac)GK(Ac)TWRTK(Ac)QC-NH2; thioether N-14) | > 10000 nM | 0.49 ± 0.63 nM | 92% | 100% | 0% | 91% | – | – | – | – | – | –
CC[C@H](C)[C@@H]1NC(=O)[C@H](Cc2c[nH]c3ccccc23)NC(=O)[C@H](Cc2c[nH]c3ccccc23)NC(=O)CSC[C@@H](C(N)=O)NC(=O)CNC(=O)[C@H](CCCCNC(C)=O)NC(=O)[C@H](CCCCN)NC(=O)[C@H](C(C)C)NC(=O)[C@H](CCCCNC(C)=O)NC(=O)[C@@H]2CCCN2C(=O)[C@H]([C@@H](C)CC)NC1=O [3.1C] ({CH2CO}-WWIIPK(Ac)VKK(Ac)GC-NH2; thioether N-11) | – | 0.08 ± 0.049 nM | 92% | 95% | 0% | 94% | 9.2 ± 25 nM | – | – | – | – | –
CC[C@H](C)[C@H](NC(=O)[C@H](CCCNC(=N)N)NC(=O)[C@H](CCCCNC(C)=O)NC(=O)[C@H](CCCNC(=N)N)NC(=O)[C@H](CC(C)C)NC(=O)[C@@H]1CSCC(=O)N[C@@H](Cc2c[nH]c3ccccc23)C(=O)N[C@@H](CCCCNC(C)=O)C(=O)NCC(=O)N[C@@H](Cc2ccc(O)cc2)C(=O)N[C@@H](CC(C)C)C(=O)N1)C(=O)N[C@@H](CCC(N)=O)C(=O)N[C@@H](CCCNC(=N)N)C(=O)N[C@H](C(=O)N[C@@H](Cc1ccc(O)cc1)C(=O)N[C@@H](CC(N)=O)C(N)=O)[C@@H](C)O [4.2C] ({CH2CO}-WK(Ac)GYLCLRK(Ac)RIQRTYN-NH2; thioether N-6) | – | – | – | – | – | – | 22 ± 26 nM | > 10000 nM | 85% | 89% | 85% | 98%
